Assay results published in US20260263554A1, “COMPOSITION COMPRISING CPNE7 PROTEIN OR CPNE7 PROTEIN-DERIVED PEPTIDE FOR REMOVING REACTIVE OXYGEN SPECIES IN CELLS” (HYSENSBIO CO., LTD, priority 2022, published 2026).

Legend:
[1] = test system: Human dental pulp cells (hDPCs); assay: Optical microscope observation of hDPCs after H2O2 and test substance; format: cell-based; conditions: 24 hours
Protocol: Human dental pulp cells (hDPCs) were cultured in an α-MEM medium containing 10% FBS under 37° C. and 5% CO2 conditions.
hDPCs were seeded into 35 mm culture dishes at a density of 1×10^5 cells, cultured for 24 hours, treated with H2O2 at a concentration of 5 uM, 100 uM, 1 mM, or 2 mM, respectively, and then treated with 100 ng/ml of a recombinant CPNE7 protein and cultured for 24 hours. After the culture was completed, the cultured cells were washed with PBS, and observed using an optical microscope. At this time, the hDPCs cultured without treating the recombinant CPNE7 protein (rCPNE7) were used as the control.
(§1) Cultured hDPC cells were seeded into 6-well plates at a density of 1×10^5 cells per well, cultured for 24 hours, and then treated with 1 mM hydrogen peroxide (H2O2) and treated with Selcopintide at concentrations of 1 μg/mL, 10 μg/mL, 100 μg/mL, and 500 μg/mL for 24 hours. Untreated hDPCs were used as the control.

hDPCs [2] = assay: Reactive oxygen species level with DCFDA, confocal microscope; format: cell-based, human; conditions: 1 mM H2O2, 10 μg/mL Selcopintide, imaged for approximately one hour
Protocol: Cultured hDPCs were seeded into 35 mm culture dishes for a confocal microscope at a density of 1×10^5 cells, cultured for 24 hours, and then treated with 1 mM H2O2 and treated with 100 ng/mL of rCPNE7. Then, images were taken for approximately one hour using a confocal microscope.
Cultured hDPCs were seeded into 35 mm culture dishes for a confocal microscope at a density of 1×10^5 cells, cultured for 24 hours, and then treated with 1 mM H2O2 and treated with 10 μg/mL of Selcopintide. Thereafter, images were taken for approximately one hour using a confocal microscope.

hDPCs [3] = assay: Immunofluorescence staining with γ-H2A.X (DNA damage marker); format: cell-based, human; conditions: 1 mM H2O2, 10 μg/mL Selcopintide, 24 hours, vs 1 mM H2O2 group
Protocol: Cultured hDPCs were seeded into 35 mm culture dishes for a confocal microscope at a density of 1×10^5 cells, cultured for 24 hours, and then treated with 1 mM H2O2 and treated with 100 ng/mL of rCPNE7. After 24 hours, the cells were fixed with 4% paraformaldehyde.
Immunofluorescence staining using a γ-H2A.X antibody was performed on the fixed cells to compare intensity.
Cultured hDPCs were seeded into 35 mm culture dishes for a confocal microscope at a density of 1×10^5 cells, cultured for 24 hours, and then treated with 1 mM H2O2 and treated with 10 μg/mL of Selcopintide. After 24 hours, the cells were fixed with 4% paraformaldehyde.

hDPC cells = assay: Amount of living cells by WST-8; format: cell-based, human; conditions: hDPCs, 1 mM H2O2, 1 μg/mL and 10 μg/mL Selcopintide, 24 hours; compared to H2O2-only-treated group
Protocol: as §1, with “96-well” for “6-well”, “3×10^3” for “1×10^5”
(§2) The WST-8 solution was added to each well and allowed to react for 1 hour, and then absorbance was measured at 450 nm using a microplate reader and compared.

[4] = test system: endogenous antioxidant enzymes in hDPC cells; assay: mRNA levels of endogenous antioxidant enzymes by RT-PCR; format: cell-based, human; conditions: hDPCs, 1 mM H2O2, CPNE7 recombinant protein 100 ng/mL or Selcopintide 10 ug/mL
Protocol: Cultured hDPCs were seeded into 60 mm culture dishes at a density of 4×10^5 cells, cultured for 24 hours, and then treated with 1 mM H2O2 and treated with the CPNE7 recombinant protein (100 ng/mL) and Selcopintide (10 ug/mL). After 30 minutes and one hour, the mRNA levels of Sod1, 2, and 3, catalase, Gpx7, Hmox1, and Txmd1 were checked.

[5] = test system: cardiomyocytes (H9C2 cell line); assay: Optical microscope observation of cardiomyocytes after H2O2 and Selcopintide; format: cell-based; conditions: H9C2, 1 mM H2O2, Selcopintide 1, 10, 100 and 500 μg/mL, 24 hours; compared to H2O2-only-treated group
Protocol: as §1, with “H9C2” for “hDPC”, “H9C2 cells” for “hDPCs”

H9C2 cells [6] = assay: Amount of living cells by WST-8 in cardiomyocytes; format: cell-based; conditions: H9C2, 1 mM H2O2, 1, 10, 100 and 500 μg/mL Selcopintide, 24 hours; compared to H2O2-only-treated group
Protocol: as §1, with “H9C2” for “hDPC”, “96-well” for “6-well”, “3×10^3” for “1×10^5”, “H9C2 cells” for “hDPCs”
as §2

H9C2 cells [7] = assay: B-gal staining, cell aging in cardiomyocytes; format: cell-based; conditions: H9C2, 1 mM H2O2, Selcopintide 1, 10, 100 and 500 μg/mL, 24 hours; compared to H2O2-only-treated group
Protocol: Cultured H9C2 was seeded into 6-well plates at a density of 1×10^5 cells, cultured for 24 hours, and then treated with 1 mM H2O2 and treated with 1 μg/mL, 10 μg/mL, 100 μg/mL, and 500 μg/mL of Selcopintide. After 24 hours, the cells were fixed with 4% paraformaldehyde.
Next, B-gal staining was performed on the fixed cells for 24 hours to compare the degree of cell aging. 24 hours after treatment with 1 mM H2O2, a large number of B-gal positive H9C2 cells were identified.

[8] = test system: dermal fibroblast (CCD986SK) cells; assay: Optical microscope observation of dermal fibroblasts after H2O2 and Selcopintide; format: cell-based; conditions: 24 hours
Protocol: as §1, with “CCD986SK” for “hDPC”, “CCD986SK cells” for “hDPCs”

CCD986SK cells [9] = assay: Amount of living cells by WST-8 in dermal fibroblasts; format: cell-based; conditions: 1 mM H2O2, 1, 10, 100 and 500 μg/mL Selcopintide, 24 hours, compared to H2O2-only-treated group
Protocol: as §1, with “CCD986SK” for “hDPC”, “96-well” for “6-well”, “3×10^3” for “1×10^5”, “CCD986SK cells” for “hDPCs”
The WST-8 solution was added to each well and allowed to react for one hour, and then absorbance was measured at 450 nm using a microplate reader and compared.

CCD986SK cells [10] = assay: B-gal staining, cell aging in dermal fibroblasts; format: cell-based; conditions: 1 mM H2O2, Selcopintide 1, 10, 100 and 500 μg/mL, 24 hours, compared to H2O2-only-treated group
Protocol: Cultured CCD986SK cells were seeded into 6-well plates at a density of 1×10^5 cells, cultured for 24 hours, and then treated with 1 mM H2O2 and treated with 1 μg/mL, 10 μg/mL, 100 μg/mL, and 500 μg/mL of Selcopintide. After 24 hours, the cells were fixed with 4% paraformaldehyde.
B-gal staining was performed on the fixed cells for 24 hours to compare the degrees of cell aging. 24 hours after treatment with 1 mM H2O2, a large number of B-gal positive CCD986SK cells were identified.

[11] = 1 mM H2O2, Selcopintide 1, 10, 100 and 500 μg/mL, compared to H2O2-only-treated group

KYKQKRRSYK (Novel peptide) [Selcopintide]
cell viability (optical microscope) ([1]; 1 mM H2O2, 1 μg/mL and 10 μg/mL treatment groups): high | cell viability (optical microscope) [1, 11]: higher | amount of reactive oxygen species (DCFDA) (hDPCs [2]): decreased and became significant at approximately one hour | accumulation of DNA damage (γ-H2A.X intensity) (hDPCs [3]): significantly reduced | cell viability (WST-8, absorbance 450 nm) (hDPC cells): significantly higher | mRNA of endogenous antioxidant enzymes Sod1, 2, and catalase ([4]; after 30 minutes, compared to H2O2-only-treated group): significantly increased | mRNA of Sod1 and Gpx7, and Hmox1 and Txrnd1 ([4]; after one hour): significantly increased | cell viability (optical microscope) [5]: higher | cell viability (WST-8, absorbance 450 nm) (H9C2 cells [6]): significantly higher | number of B-gal positive H9C2 cells (H9C2 cells [7]): significantly reduced | significance of higher cell viability (optical microscope) ([8]; 1 mM H2O2, 1 μg/mL and 10 μg/mL of Selcopintide): highest | cell viability (optical microscope) [8, 11]: higher | cell viability (WST-8, absorbance 450 nm) (CCD986SK cells [9]): significantly higher | number of B-gal positive CCD986SK cells (CCD986SK cells [10]): significantly reduced
